Two molecules from patent US11440904B2, “Substituted pyrimidines, pharmaceutical compositions and therapeutic methods thereof” (priority 2017, dated 2022) can be followed below.

One assay deals with ITK (Homo sapiens (Human), UniProt Q08881). As to the kind of experiment: 33P ATP HotSpot kinase assay, ITK. To be noted: 10 μM ATP. The assay is classed as biochemical. Here is the method:
(§1) (See, e.g., Ma, et al, 2008 Expert Opin Drug Discov. 3(6): 607-621.)
(§2) Each of Compound-1 to Compound-24 was measured for its inhibitory activity on TEC family kinases, BMX and ITK. The measurement was carried out in the same process as described above, BMX, ITK enzymes were used.

The test system of a further assay is MDA-MB-231 cells. Put plainly: Cancer cell growth inhibition, MDA-MB-231. The assay is classed as cell-based. To be noted: Homo sapiens, 72 hr, cell viability. Here is the method: (§3) In order to test certain compounds of Compounds 1 to 24 for cancer cell growth inhibition, a leukemia cancer cell line EOL-1, and triple negative breast cancer cell line MDA-MB-231 was used.
(§4) EOL-1 and MDA-MB-231 cells were cultured in a RPMI-1640 cell culture medium supplemented with 10% fetal bovine serum (FBS) and 1% penicillin/streptomycin (Gibco BRL).
(§5) The cancer cell lines stored in a liquid nitrogen tank were each quickly thawed at 37° C. water bath, and centrifuged to remove the DMSO in the freezing medium. The resulting cell pellet was mixed with a culture medium, incubated in a culture flask at 37° C. under 5% CO2 for 2 to 3 days. The EOL-1 cells were sub-cultured by 1:5˜10 dilution in fresh culture medium. For MD-MB-231 cells, the culture medium was removed and the remaining cells were washed with PBS (Phosphate Buffered Saline) and trypsinized by trypsin-EDTA. The detached cells were sub-cultured by 1:5˜10 dilution in fresh culture medium.
(§6) For the cell growth inhibition assay, the cells were seeded in 96-well cell culture plates at 5×10^4 cells/well for EOL-1 and 5×10^3 cells/well for MDA-MB-231 cells in 50 μL and incubated at 37° C. under 5% CO2 for 3 to 6 hr. before the compounds were added.
(§7) Certain compounds of Compounds 1-24 were dissolved in dimethylsulfoxide (DMSO) to a concentration of 10 mM. The DMSO solution containing test compound was diluted with a culture medium to a final concentration of 600 μM, and then diluted 100 times to 6 μM as top dose followed by 1:3 serial dilutions, and then add 50 μL diluted compounds to the 50 μL cells, with a final top dose at 3 μM and the plate was incubated at 37° C. under 5% CO2 for 72 hr. The cell viability was determined by Cell Meter™ Fluorimetric Cell Cytotoxicity Assay Kit (AAT Bioquest) according to the manufacturer's instructions. Briefly, thaw and warm up the Assay Solution (Component A) to 37° C., and mix it thoroughly. Add 20 μL/well (96-well plate) of Assay Solution (Component A). Mix the reagents by shaking the plate gently for 30 seconds. Incubate the cells in a 37° C., 5% CO2 incubator for 1-24 hr., protected from light. Monitor the fluorescence intensity (bottom read) at Ex/Em=540/590 nm. Alternatively, read the O.D. at 570 nm (the reference wavelength should be 600 nm) to determine the cell viability in each well.

In the next assay the test system is EOL-1 cells. Put plainly: Cancer cell growth inhibition, EOL-1. Type of assay: cell-based. To be noted: Homo sapiens, EOL1, 72 hr, cell viability. Here is the method: as §3, §4, §5, §6, §7
Assay [1] deals with BTK phosphorylation at tyrosine 223 (Homo sapiens (Human), UniProt Q06187). Put plainly: Immunoblot analysis of phospho-BTK(Y223) in Ramos cells. The assay is classed as cell-based. The settings on record: 1 hr treatment, anti-IgM stimulation, western blot. Here is the method:
Ramos cells were cultured in RPMI-1640 medium with 10% fetal bovine serum (FBS) and 1% penicillin/streptomycin (Gibco BRL). Before the assay, Ramos cells were counted and seeded at 1×10^6 cells/mL, cultured overnight in RPMI-1640 medium with 10% FBS, the cells were centrifuged at 950 rpm for 10 min., then 1˜2×10^6 cells were split into each tube in 300 μL medium. The cells were treated with certain compounds of Compound 1-24 at 0˜3 μM for 1 hr. in 37° C., then the cells were stimulated with 10 μg/mL of anti-IgM (BioLegend) for 5 min., followed by 3 min. spin at 2000 rpm. After aspirating the supernatant, 60 μL of RIPA lysis buffer (50 mM Tris-HCl, 1 mM EDTA, 1% NP-40, 0.5% sodium deoxycholate, and 0.1% SDS, pH 7.4, 150 mM NaCl, 1 mM Na3VO4) was added to the cell pellet to lyse the cells on ice for 30 min. After spin at 10,000 rpm for 5 min., 60 μL of the cell lysate was transferred to a fresh tube, and 20 μL of 4× LDS buffer was added to the tube. The samples were boiled on a 100° C. heat block for 10 min. 25 μL lysate was loaded on to SDS-PAGE gel (NuPAGE™ Novex™ 4-12% Bis-Tris Midi Protein Gels, cat. no. WG1402BOX, ThermoFisher) for western blotting analysis per the manufacturer's instructions. Antibodies used for immunoblot analysis include Btk and p-Btk(Y223) (cat. no. 3553 and 5082; Cell Signaling Technology, Beverly, Mass.). p-Btk(Y223) (cat. no. GTX61791; GeneTex, Inc., Irvine, Calif.). Membranes were detected using infrared fluorescence dye (IRDye® 800CW Donkey anti-Rabbit IgG (H+L), cat. no. P/N 925-32213; IRDye® 680RD Donkey anti-Mouse IgG (H+L), cat. no. P/N 925-68072 and scanned on a LiCor Odyssey scanner (LiCor Biosciences, Lincoln, Nebr.).

The target in another assay is BTK wt (Homo sapiens (Human), UniProt Q06187). As to the kind of experiment: 33P ATP HotSpot kinase assay, BTK wt. Type of assay: biochemical. The settings on record: 10 μM ATP.
Chain of BTK wt (Q06187 whole entry): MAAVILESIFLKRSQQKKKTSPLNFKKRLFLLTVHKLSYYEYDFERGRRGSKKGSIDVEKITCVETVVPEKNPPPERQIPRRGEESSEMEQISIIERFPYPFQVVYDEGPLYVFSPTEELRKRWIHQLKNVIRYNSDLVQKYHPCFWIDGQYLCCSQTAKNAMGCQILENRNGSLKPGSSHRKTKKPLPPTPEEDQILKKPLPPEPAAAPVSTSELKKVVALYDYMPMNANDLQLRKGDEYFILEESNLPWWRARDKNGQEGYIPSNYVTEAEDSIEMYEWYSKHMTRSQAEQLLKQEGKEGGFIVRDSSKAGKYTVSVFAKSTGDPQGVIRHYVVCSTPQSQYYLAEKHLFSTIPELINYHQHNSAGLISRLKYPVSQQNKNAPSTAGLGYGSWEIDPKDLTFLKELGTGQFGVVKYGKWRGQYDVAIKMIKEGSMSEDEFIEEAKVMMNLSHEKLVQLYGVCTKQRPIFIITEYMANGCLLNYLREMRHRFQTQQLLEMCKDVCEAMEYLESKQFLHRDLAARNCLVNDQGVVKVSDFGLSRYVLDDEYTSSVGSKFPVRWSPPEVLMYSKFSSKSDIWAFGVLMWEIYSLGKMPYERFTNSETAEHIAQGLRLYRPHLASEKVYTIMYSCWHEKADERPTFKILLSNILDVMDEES
Description: as §1

In the next assay the target is BMX (Homo sapiens (Human), UniProt P51813). Put plainly: 33P ATP HotSpot kinase assay, BMX. Type of assay: biochemical. To be noted: 10 μM ATP. Here is the method: as §1, §2
Chain of BMX (P51813 whole entry): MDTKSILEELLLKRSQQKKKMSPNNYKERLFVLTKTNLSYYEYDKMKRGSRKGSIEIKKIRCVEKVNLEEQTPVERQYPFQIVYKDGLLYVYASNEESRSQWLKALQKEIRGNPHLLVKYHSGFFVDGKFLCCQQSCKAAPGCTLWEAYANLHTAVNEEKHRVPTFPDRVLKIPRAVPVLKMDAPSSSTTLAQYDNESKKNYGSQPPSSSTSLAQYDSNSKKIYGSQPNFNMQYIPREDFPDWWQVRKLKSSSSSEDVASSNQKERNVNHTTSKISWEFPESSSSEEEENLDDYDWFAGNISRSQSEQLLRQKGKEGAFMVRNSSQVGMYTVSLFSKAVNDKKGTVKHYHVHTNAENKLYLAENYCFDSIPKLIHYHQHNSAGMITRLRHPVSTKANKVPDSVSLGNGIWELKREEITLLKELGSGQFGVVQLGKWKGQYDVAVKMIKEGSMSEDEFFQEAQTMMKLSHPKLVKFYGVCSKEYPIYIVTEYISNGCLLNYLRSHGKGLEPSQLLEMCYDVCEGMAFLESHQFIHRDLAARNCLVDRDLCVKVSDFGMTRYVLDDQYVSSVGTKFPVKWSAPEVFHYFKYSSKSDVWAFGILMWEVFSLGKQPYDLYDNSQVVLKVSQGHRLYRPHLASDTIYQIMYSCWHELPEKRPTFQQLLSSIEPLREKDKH
In assay [2] the target is FAK phosphorylation at tyrosine 397 (Homo sapiens (Human), UniProt Q05397). Put plainly: Cell-based FAK(Y397) phosphorylation ELISA in PC3 cells. To be noted: 1 hr treatment, read-out: EC50 phospho-FAK(Y397). (In general: In an ELISA, binding on a coated surface is turned into a signal by an enzyme label.)
Chain of FAK phosphorylation at tyrosine 397 (Q05397 whole entry): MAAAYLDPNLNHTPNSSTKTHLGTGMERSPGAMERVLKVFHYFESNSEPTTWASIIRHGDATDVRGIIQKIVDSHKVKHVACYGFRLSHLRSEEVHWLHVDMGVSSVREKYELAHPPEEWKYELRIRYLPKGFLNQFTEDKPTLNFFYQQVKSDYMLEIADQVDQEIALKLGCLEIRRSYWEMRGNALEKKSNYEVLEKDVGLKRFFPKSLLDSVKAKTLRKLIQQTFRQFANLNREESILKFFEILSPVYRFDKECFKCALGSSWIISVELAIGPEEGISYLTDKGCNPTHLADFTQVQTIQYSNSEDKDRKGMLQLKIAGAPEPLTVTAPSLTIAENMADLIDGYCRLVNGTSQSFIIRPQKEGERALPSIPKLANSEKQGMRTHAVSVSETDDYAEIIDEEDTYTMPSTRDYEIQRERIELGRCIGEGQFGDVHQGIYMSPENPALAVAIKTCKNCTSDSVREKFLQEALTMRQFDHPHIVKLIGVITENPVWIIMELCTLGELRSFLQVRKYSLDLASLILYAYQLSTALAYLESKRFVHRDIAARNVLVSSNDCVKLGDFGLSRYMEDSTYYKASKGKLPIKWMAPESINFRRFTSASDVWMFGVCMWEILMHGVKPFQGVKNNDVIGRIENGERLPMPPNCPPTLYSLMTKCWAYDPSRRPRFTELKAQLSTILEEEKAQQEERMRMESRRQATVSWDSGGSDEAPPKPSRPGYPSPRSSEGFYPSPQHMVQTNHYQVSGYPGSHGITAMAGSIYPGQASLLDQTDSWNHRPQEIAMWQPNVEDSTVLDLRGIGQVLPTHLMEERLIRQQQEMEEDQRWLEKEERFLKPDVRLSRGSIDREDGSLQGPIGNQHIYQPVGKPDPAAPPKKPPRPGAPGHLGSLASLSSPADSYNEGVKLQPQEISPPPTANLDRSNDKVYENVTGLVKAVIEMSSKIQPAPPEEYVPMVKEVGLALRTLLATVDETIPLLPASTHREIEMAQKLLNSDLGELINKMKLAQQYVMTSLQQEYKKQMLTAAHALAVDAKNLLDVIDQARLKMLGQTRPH
Description: After aspirating the supernatant, 100 μL of RIPA lysis buffer (50 mM Tris-HCl, 1 mM EDTA, 1% NP-40, 0.5% sodium deoxycholate, and 0.1% SDS, pH 7.4, 150 mM NaCl, 1 mM Na3VO4) was added to the cell pellet to lyse the cells on ice for 30 min. After spin at 12,000 rpm for 5 min., 90 μL of the cell lysate was transferred to a fresh tube.
For an enzyme-linked immunosorbent assay (ELISA) assay, 10 μL of the lysate was used for p-FAK(Y397) elisa assay. ELISA was done using the FAK [pY397] Phospho-ELISA Kit (ThermoFisher Scientific, KHO0441) according to the manufacturer's instructions. […] During the first incubation, 50 μL standards of known p-FAK (Y397) content and compound treated samples (10 μL lysate) plus 40 μL diluent buffer were pipetted into the wells and let the p-FAK antigen standards and samples bind to the immobilized (capture) antibody on the plate, a rabbit antibody specific for p-FAK (Y397) 50 μL/well was added to the wells, this antibody serves as a detection antibody by binding to the p-FAK protein during a 3 hr. incubation at room temperature. After washing 4 times, a horseradish peroxidase labeled anti-rabbit IgG was added. This binds to the detection antibody. After a 30 min. incubation and washing to remove all the unbound enzyme, a substrate solution (TMB) was added, which was acted upon by the bound enzyme to produce color.
Another assay deals with ERK1 kinase (Homo sapiens (Human), UniProt P27361). Put plainly: 33P ATP HotSpot kinase assay, ERK1. Type of assay: biochemical. To be noted: 10 μM ATP. Here is the method:
as §1
Certain compounds of Compound-1 to Compound-24 were measured for its inhibitory activity on ERK1 kinase. The measurement was carried out in the same process as described above, ERK enzyme was used.

The target of another assay is EGFR wt (Homo sapiens (Human), UniProt P00533). As to the kind of experiment: 33P ATP HotSpot kinase assay, EGFR wt. The assay is classed as biochemical. To be noted: 10 μM ATP.
Chain of EGFR wt (P00533 25-1210): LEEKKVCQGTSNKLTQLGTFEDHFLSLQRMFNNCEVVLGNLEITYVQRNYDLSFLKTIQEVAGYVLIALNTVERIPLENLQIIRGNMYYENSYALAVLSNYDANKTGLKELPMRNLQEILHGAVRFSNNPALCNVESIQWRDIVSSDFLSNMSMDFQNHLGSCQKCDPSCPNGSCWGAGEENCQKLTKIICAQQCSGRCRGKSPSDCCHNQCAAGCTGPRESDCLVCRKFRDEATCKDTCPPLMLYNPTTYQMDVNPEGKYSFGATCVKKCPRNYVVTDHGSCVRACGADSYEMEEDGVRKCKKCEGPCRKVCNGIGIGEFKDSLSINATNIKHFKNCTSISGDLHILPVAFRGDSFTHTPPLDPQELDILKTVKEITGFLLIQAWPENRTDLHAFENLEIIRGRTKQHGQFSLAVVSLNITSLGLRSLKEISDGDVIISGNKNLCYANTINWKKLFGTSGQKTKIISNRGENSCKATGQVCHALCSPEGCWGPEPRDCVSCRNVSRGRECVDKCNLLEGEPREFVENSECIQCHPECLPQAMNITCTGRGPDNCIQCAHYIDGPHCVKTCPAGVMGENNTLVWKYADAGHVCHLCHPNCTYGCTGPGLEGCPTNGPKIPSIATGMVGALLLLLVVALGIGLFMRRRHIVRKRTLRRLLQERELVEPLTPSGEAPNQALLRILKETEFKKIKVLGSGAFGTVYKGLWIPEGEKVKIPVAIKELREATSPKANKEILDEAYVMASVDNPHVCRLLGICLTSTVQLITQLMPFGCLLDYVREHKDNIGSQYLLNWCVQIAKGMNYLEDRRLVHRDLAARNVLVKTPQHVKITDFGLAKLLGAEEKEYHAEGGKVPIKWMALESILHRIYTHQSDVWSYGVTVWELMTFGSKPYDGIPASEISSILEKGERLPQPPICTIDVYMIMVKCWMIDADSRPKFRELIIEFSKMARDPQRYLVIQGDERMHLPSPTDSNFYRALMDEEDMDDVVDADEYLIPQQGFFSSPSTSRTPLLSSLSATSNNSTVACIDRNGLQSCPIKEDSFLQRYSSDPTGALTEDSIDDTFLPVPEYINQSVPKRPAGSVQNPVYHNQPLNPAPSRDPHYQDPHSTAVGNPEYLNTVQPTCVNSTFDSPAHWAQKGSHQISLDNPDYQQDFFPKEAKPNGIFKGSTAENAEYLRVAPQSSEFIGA
Assay [3] has as its system ERK phosphorylation at T202/Y204. Put plainly: Cell-based ERK1/2 (T202/Y204) phosphorylation ELISA in EOL-1 cells. The settings on record: 3 hr or 15 hr treatment, read-out: EC50 phospho-ERK1/2 (T202/Y204). On the procedure:
EOL-1 cells were cultured in RPMI-1640 medium with 10% fetal bovine serum (FBS) and 1% penicillin/streptomycin (Gibco BRL). Before the assay, EOL-1 cells were counted and seeded at 1×10^6 cells/well in a 6-well plate, cultured overnight in RPMI-1640 medium with 10% FBS. The cells were treated with certain compounds of Compounds 1-24 at 0˜3 μM for 3 hr. or 15 hr. at 37° C., then the cells were harvested, followed by 5 min. spin at 2000 rpm. After aspirating the supernatant, the cells were washed with cold PBS, span again, then 100 μL of RIPA lysis buffer (50 mM Tris-HCl, 1 mM EDTA, 1% NP-40, 0.5% sodium deoxycholate, and 0.1% SDS, pH 7.4, 150 mM NaCl, 1 mM Na3VO4) was added to the cell pellet to lyse the cells on ice for 30 min. After spin at 12,000 rpm for 5 min., 90 μL of the cell lysate was transferred to a fresh tube.
For an enzyme-linked immunosorbent assay (ELISA) assay, 10 μL of the lysate was used for p-ERK1/2 (T202/Y204) elisa assay. ELISA was done using the ERK 1/2 (pT202/Y204 +Total) ELISA Kit (Abcam, ab176660) according to the manufacturer's instructions. Specifically, add 50 μL of all samples or standards to appropriate wells. Add 50 μL of the Antibody Cocktail to each well. Seal the plate and incubate for 1 hr. at r.t. on a plate shaker set to 400 rpm. Wash each well with 3×350 μL 1× Wash Buffer PT. […] This is an endpoint reading.

In another assay the target is FAK (Homo sapiens (Human), UniProt Q05397). Put plainly: 33P ATP HotSpot kinase assay, FAK. To be noted: read-out: IC50 FAK, 10 μM ATP.
Chain of FAK (Q05397 whole entry): as the sequence (Q05397 whole entry) above

Where “and” joins values, the source holds several entries; their conditions need not be identical. Equal values may be shown once.

Chain of BTK phosphorylation at tyrosine 223 (Q06187 whole entry): as the sequence (Q06187 whole entry) above
Chain of ITK (Q08881 whole entry): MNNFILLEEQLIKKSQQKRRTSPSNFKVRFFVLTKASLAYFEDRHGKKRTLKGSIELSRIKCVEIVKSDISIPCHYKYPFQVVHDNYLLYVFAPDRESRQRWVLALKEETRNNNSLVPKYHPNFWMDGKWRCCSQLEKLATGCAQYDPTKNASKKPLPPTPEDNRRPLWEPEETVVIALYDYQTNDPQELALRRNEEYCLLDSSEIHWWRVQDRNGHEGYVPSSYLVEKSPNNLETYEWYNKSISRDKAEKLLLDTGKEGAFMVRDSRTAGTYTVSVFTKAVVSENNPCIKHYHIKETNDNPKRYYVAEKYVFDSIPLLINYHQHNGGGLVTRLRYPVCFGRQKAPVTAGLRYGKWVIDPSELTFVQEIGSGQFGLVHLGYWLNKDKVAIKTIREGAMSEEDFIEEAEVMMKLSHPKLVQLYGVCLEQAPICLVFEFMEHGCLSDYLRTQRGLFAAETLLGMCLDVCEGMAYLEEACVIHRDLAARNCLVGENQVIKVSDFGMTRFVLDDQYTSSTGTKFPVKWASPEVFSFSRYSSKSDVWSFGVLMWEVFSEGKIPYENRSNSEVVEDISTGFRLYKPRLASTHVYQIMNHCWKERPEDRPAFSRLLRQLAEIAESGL
Chain of ERK1 kinase (P27361 whole entry): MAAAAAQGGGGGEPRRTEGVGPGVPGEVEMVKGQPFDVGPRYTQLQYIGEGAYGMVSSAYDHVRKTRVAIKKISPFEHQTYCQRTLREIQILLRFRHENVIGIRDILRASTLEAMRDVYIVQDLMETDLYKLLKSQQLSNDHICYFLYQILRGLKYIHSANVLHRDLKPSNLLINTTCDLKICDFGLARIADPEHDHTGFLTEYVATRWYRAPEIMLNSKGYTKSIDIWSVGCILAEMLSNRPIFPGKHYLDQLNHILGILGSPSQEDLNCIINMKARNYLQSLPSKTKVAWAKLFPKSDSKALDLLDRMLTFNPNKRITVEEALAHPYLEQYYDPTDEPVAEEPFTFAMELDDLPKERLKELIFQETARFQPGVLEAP
Description for EGFR wt: Then, Kinase assays were performed using the “HotSpot” assay platform.
Briefly, specific kinase/substrate pairs along with required cofactors were prepared in reaction buffer; 20 mM Hepes pH 7.5, 10 mM MgCl2, 1 mM EGTA, 0.02% Brij35, 0.02 mg/ml BSA, 0.1 mM Na3VO4, 2 mM DTT, 1% DMSO. Compounds were delivered into the reaction, followed about 20 minutes later by addition of a mixture of ATP (Sigma, St. Louis Mo.) and ^33P ATP (Perkin Elmer, Waltham Mass.) to a final concentration of 10 μM.
Reactions were carried out at room temperature for 120 min, followed by spotting of the reactions onto P81 ion exchange filter paper (Whatman Inc., Piscataway, N.J.). Unbound phosphate was removed by extensive washing of filters in 0.75% phosphoric acid. […] IC50 values and curve fits were obtained using Prism (GraphPad Software).

`C=CC(=O)Nc1ccccc1Nc1nc(Nc2ccc3c(c2)OCCOCCOCCO3)nc2[nH]cnc12` [Compound-11, N-[2-[[2-(2,5,8,11-tetraoxabicyclo[10.4.0]hexadeca-1(12),13,15-trien-14-ylamino)-9H-purin-6-yl]amino]phenyl]prop-2-enamide]: the IC50 (usually the midpoint of a concentration-inhibition curve) against ITK worked out at 270 nM; with MDA-MB-231 cells, 300 nM; with EOL-1 cells, 25 nM; against BTK wt, 2.33 nM; on BMX, 1.21 nM; against ERK1 kinase, 6.23 nM. Further, the IC50 on EGFR wt is 1900 nM and > 1000 nM; on FAK, 17.4 nM. In addition, the values for the EC50 in [1], in [2] and in assay [3] were 100 to 1000 nM, less than 100 nM and less than 100 nM, respectively.
For `CCC(=O)Nc1ccccc1Nc1nc(Nc2ccc3c(c2)OCCOCCOCCO3)nc2[nH]cnc12` [Compound-12, N-[2-[[2-(2,5,8,11-tetraoxabicyclo[10.4.0]hexadeca-1(12),13,15-trien-14-ylamino)-9H-purin-6-yl]amino]phenyl]propanamide], the IC50 against ITK is 447 nM; in the assay with MDA-MB-231 cells, more than 3000 nM; in the assay on EOL-1 cells, 2400 nM; against BTK wt it was 4.36 nM; against BMX, 2.7 nM; on ERK1 kinase, 714 nM. The IC50 is more than 1000 nM against EGFR wt and 24.6 nM at FAK. Moreover, the EC50 in assay [1] lay in the range of 100 to 1000 nM; in [3], 1000 to 3000 nM.
